Test results as given in patent publication EP4467141A1, “PYRAZOLO-QUINOLINES AS SELECTIVE INHIBITORS OF GENOTOXIC STRESS-INDUCED IKK/NF- KB PATHWAYS FOR CANCER THERAPY” (Max-Delbrück-Centrum für Molekulare Medizin in der …, priority 2023, dated 2024).

Experiments:
[1] = tested on: NF-κB subunit p65 phosphorylation (S536); assay: Western blot of p65 phosphorylation (S536) after DNA damage (irradiation or etoposide) in U2-OS cells; type: cell-based; conditions: 10 µM plus etoposide 50 µM, 24 hours
MET (cMet) = molecular target: T1, MET (cMet) (Homo sapiens, UniProt P08581); assay: Kinase panel study; type: biochemical; conditions: read-out: Percentage of inhibition; for inhibition at 1 µM: 1000nM; for inhibition at 10 µM: 10000nM
T1 construct: purchased Thermo Fisher Scientific
Outline: (§1)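 A commercial kinase profiling service ran the assays according to its ZLyte or Adapta standard protocols. Compound was present at 10 µM or 1 µM, and kinase activity loss was expressed as percent inhibition.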

ERBB2 (HER2) = molecular target: T2, ERBB2 (HER2) (Homo sapiens, UniProt P04626); assay: Kinase panel study; type: biochemical; conditions: read-out: Percentage of inhibition; for inhibition at 1 µM: 1000nM; for inhibition at 10 µM: 10000nM
T2 construct: purchased Thermo Fisher Scientific
T2 sequence (P04626 23-1255): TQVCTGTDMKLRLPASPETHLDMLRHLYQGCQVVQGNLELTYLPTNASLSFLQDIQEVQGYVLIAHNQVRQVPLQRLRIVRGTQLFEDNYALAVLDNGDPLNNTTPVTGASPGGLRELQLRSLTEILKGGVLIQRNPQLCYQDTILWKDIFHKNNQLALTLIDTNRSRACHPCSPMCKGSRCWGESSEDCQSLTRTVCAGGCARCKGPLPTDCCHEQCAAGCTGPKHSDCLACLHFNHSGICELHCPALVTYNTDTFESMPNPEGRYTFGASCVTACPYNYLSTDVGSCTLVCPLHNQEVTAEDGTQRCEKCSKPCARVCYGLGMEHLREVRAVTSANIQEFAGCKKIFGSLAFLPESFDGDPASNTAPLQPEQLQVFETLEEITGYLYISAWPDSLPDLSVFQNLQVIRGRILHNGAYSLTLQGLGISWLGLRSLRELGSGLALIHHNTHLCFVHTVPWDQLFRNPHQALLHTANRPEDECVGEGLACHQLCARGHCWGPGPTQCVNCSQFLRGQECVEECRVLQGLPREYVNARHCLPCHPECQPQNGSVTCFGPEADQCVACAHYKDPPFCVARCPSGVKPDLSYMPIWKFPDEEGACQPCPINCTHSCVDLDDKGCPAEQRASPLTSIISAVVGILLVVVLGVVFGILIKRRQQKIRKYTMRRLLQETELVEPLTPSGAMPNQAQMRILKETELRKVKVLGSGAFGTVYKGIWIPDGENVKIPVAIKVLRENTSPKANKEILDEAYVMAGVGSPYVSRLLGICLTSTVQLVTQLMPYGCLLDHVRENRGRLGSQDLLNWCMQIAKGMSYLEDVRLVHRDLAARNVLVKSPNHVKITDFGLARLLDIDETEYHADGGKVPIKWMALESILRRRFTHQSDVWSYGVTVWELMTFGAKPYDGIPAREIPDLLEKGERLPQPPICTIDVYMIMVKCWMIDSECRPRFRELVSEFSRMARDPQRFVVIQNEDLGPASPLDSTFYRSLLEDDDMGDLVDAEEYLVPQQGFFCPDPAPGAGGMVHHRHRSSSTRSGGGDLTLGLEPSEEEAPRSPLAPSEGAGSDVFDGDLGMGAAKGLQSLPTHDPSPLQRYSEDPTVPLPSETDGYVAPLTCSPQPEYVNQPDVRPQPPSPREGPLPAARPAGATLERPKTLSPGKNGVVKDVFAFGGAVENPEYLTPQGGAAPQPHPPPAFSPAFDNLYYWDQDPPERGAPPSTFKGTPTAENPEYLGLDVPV
Outline: as §1

CAMK1D (CaMKI delta) = molecular target: T3, CAMK1D (CaMKI delta) (Homo sapiens, UniProt Q8IU85); assay: Kinase panel study; type: biochemical; conditions: read-out: Percentage of inhibition; for inhibition at 1 µM: 1000nM; for inhibition at 10 µM: 10000nM
T3 construct: purchased Thermo Fisher Scientific
Outline: as §1

YES1 = molecular target: T4, YES1 (Homo sapiens, UniProt P07947); assay: Kinase panel study; type: biochemical; conditions: read-out: Percentage of inhibition; for inhibition at 1 µM: 1000nM; for inhibition at 10 µM: 10000nM
T4 construct: purchased Thermo Fisher Scientific
T4 sequence (P07947 whole entry): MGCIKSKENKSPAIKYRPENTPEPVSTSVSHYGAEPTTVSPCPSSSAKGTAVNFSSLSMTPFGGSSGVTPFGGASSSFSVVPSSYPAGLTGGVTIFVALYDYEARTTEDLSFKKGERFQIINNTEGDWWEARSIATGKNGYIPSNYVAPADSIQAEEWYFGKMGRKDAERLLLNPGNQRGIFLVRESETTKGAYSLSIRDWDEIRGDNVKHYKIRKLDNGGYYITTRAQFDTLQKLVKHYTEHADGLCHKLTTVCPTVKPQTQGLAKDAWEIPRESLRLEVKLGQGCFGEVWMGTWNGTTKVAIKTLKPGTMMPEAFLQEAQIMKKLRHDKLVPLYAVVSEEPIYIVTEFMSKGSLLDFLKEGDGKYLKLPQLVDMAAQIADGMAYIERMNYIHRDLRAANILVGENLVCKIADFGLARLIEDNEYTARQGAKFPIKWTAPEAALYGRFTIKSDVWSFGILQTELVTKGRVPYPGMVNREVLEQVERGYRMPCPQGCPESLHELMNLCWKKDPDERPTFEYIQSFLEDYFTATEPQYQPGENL
Outline: as §1

CSNK1E (CK1 epsilon) = molecular target: T5, CSNK1E (CK1 epsilon) (Homo sapiens, UniProt P49674); assay: Kinase panel study; type: biochemical; conditions: read-out: Percentage of inhibition; for inhibition at 1 µM: 1000nM; for inhibition at 10 µM: 10000nM
T5 construct: purchased Thermo Fisher Scientific
T5 sequence (P49674 whole entry): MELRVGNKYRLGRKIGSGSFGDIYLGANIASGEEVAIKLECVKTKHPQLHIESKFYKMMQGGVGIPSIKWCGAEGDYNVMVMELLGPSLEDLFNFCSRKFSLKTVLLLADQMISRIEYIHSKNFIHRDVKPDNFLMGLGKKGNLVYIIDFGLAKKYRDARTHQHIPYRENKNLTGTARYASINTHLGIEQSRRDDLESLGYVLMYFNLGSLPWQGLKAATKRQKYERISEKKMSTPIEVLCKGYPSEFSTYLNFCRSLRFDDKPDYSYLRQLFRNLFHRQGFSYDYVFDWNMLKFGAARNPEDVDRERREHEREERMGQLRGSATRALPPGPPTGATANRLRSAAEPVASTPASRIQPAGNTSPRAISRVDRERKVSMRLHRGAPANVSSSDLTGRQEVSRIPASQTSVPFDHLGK
Outline: as §1

MAPK7 (ERK5) = molecular target: T6, MAPK7 (ERK5) (Homo sapiens, UniProt Q13164); assay: Kinase panel study; type: biochemical; conditions: read-out: Percentage of inhibition; for inhibition at 1 µM: 1000nM; for inhibition at 10 µM: 10000nM
T6 construct: purchased Thermo Fisher Scientific
T6 sequence (Q13164 whole entry): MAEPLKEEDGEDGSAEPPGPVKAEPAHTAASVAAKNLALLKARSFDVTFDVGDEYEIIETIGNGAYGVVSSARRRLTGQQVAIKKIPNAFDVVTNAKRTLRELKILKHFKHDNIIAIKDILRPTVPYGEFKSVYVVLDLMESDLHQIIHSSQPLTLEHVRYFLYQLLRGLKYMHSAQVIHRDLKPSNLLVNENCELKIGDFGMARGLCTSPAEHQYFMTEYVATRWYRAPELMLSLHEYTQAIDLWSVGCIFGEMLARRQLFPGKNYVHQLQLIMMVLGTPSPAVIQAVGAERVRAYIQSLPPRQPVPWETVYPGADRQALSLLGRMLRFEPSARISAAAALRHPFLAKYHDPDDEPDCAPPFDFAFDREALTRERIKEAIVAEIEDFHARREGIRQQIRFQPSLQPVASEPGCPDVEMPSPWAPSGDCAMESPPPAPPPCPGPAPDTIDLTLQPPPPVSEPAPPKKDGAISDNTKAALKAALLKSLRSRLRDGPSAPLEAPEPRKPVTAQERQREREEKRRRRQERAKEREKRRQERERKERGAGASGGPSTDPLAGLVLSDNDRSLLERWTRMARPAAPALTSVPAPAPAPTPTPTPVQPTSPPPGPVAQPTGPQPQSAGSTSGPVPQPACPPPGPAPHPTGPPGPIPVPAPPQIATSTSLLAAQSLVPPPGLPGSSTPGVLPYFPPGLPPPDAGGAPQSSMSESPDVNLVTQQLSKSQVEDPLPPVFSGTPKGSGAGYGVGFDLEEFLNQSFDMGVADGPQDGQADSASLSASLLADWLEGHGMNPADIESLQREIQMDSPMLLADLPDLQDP
Outline: as §1

SGK (SGK1) = molecular target: T7, SGK (SGK1) (Homo sapiens, UniProt O00141); assay: Kinase panel study; type: biochemical; conditions: read-out: Percentage of inhibition; for inhibition at 1 µM: 1000nM; for inhibition at 10 µM: 10000nM
T7 construct: purchased Thermo Fisher Scientific
T7 sequence (O00141 1-431): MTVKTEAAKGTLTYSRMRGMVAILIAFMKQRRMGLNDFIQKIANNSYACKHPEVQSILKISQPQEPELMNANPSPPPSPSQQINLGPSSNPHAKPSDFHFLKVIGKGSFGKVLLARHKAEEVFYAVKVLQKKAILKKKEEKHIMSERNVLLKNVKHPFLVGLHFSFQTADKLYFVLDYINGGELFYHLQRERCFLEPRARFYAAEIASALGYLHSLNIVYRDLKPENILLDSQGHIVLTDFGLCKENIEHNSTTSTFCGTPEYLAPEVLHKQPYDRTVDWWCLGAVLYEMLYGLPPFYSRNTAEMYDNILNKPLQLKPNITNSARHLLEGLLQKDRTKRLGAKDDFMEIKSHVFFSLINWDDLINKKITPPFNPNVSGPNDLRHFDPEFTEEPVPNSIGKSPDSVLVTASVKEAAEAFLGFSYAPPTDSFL
Outline: as §1

CDK9/cyclin T1 = molecular target: T8, CDK9/cyclin T1 (Homo sapiens, UniProt P50750); assay: Kinase panel study; type: biochemical; conditions: read-out: Percentage of inhibition; for inhibition at 1 µM: 1000nM; for inhibition at 10 µM: 10000nM
T8 construct: purchased Thermo Fisher Scientific
T8 sequence (P50750 whole entry): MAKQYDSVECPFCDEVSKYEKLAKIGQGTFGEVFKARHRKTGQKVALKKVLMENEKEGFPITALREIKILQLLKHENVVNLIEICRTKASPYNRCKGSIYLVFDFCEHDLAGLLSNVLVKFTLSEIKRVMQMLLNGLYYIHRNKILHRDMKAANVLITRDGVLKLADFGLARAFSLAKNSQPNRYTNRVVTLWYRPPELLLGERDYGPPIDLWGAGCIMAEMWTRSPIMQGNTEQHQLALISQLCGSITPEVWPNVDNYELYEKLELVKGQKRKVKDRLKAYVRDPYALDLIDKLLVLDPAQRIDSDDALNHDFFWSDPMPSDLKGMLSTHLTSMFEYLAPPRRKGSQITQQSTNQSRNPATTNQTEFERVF
T8 sequence (O60563 whole entry partner): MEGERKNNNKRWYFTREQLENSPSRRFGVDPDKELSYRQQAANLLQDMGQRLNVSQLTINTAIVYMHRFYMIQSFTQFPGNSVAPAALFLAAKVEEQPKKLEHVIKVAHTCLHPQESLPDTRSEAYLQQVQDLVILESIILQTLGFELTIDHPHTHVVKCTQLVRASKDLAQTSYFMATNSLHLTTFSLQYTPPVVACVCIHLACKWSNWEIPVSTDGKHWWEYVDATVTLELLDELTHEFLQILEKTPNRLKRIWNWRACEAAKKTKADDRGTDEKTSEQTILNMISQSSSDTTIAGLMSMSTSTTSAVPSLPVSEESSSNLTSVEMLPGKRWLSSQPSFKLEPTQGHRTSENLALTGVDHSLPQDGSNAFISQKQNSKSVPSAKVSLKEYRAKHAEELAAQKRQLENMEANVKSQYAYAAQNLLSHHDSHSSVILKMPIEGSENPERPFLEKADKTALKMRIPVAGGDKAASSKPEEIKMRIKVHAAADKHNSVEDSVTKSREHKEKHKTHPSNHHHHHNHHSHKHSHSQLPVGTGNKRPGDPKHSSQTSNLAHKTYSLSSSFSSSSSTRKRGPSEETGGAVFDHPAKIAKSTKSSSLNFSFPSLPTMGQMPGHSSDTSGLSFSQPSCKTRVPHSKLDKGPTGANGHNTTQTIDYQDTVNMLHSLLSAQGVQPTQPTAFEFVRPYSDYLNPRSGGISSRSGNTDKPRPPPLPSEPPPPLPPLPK
Outline: as §1

Row | SMILES | etoposide-stimulated p65 phosphorylation [1] | inhibition at 1 µM (MET (cMet)) [%] | inhibition at 10 µM (MET (cMet)) [%] | inhibition at 1 µM (ERBB2 (HER2)) [%] | inhibition at 10 µM (ERBB2 (HER2)) [%] | inhibition at 1 µM (CAMK1D (CaMKI delta)) [%] | inhibition at 10 µM (CAMK1D (CaMKI delta)) [%] | inhibition at 1 µM (YES1) [%] | inhibition at 10 µM (YES1) [%] | inhibition at 1 µM (CSNK1E (CK1 epsilon)) [%] | inhibition at 10 µM (CSNK1E (CK1 epsilon)) [%] | inhibition at 1 µM (MAPK7 (ERK5)) [%] | inhibition at 10 µM (MAPK7 (ERK5)) [%] | inhibition at 1 µM (SGK (SGK1)) [%] | inhibition at 10 µM (SGK (SGK1)) [%] | inhibition at 1 µM (CDK9/cyclin T1) [%] | inhibition at 10 µM (CDK9/cyclin T1) [%]
1 | COc1ccc2c(c1OC)c(=O)n1c3ccc(O)cc3c3ccnc2c31 [MW01, 5-Hydroxy-10,11-dimethoxy-9H-benzo[c]indolo[3,2,1-ij][1,5]naphthyridin-9-one] | abrogated | 14 | 35 | 2 | 4 | 5 | 9 | 17 | 16 | 6 | 32 | 9 | 1 | -4 | 15 | 11 | 20
2 | COc1ccc2cc3c(N)nn(C(=O)c4cccc(N(C)C)c4)c3nc2c1 [MW05, (3-Amino-7-methoxypyrazolo[3,4-b]quinolin-1-yl)-[3-(dimethylamino)phenyl]methanone] | abrogated | 5 | -8 | -5 | -19 | 1 | -1 | 15 | 20 | 2 | 0 | 2 | -7 | -2 | -12 | 19 | 57
